Reference: PubChem BioAssay (NCI)
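Cells were grown in 96-well plates and exposed to each compound for 48 hours at five concentrations; endpoints were interpolated linearly between bracketing concentrations, or set to the highest concentration if not reached. TGI marks complete inhibition of growth.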

Experiments:
Experiment in all cases: DTP human tumour cell line panel, 48 h
[1] = tested on: SNB-78 CNS
[2] = tested on: DLD-1 colon
[3] = tested on: SN12C renal
[4] = tested on: A549 NSCLC
[5] = tested on: UO-31 renal
[6] = tested on: OVCAR-5 ovarian
[7] = tested on: DMS 273 small cell lung
[8] = tested on: EKVX NSCLC
[9] = tested on: HOP-62 NSCLC
[10] = tested on: PC-3 prostate
[11] = tested on: HOP-92 NSCLC
[12] = tested on: A498 renal
[13] = tested on: DU-145 prostate
[14] = tested on: MDA-MB-435
[15] = tested on: MCF7 breast
[16] = tested on: NCI/ADR-RES ovarian
[17] = tested on: T-47D breast
[18] = tested on: OVCAR-3 ovarian
[19] = tested on: HCT-116 colon
[20] = tested on: XF 498 CNS

Row | SMILES | TGI [1] [µM] | TGI [2] [µM] | TGI [3] [µM] | TGI [4] [µM] | TGI [5] [µM] | TGI [6] [µM] | TGI [7] [µM] | TGI [8] [µM] | TGI [9] [µM] | TGI [10] [µM] | TGI [11] [µM] | TGI [12] [µM] | TGI [13] [µM] | TGI [14] [µM] | TGI [15] [µM] | TGI [16] [µM] | TGI [17] [µM] | TGI [18] [µM] | TGI [19] [µM] | TGI [20] [µM]
1 | COC(=O)CN(C)P(=O)(N1CC1)N1CC1 | > 100 | > 100 | > 100 | > 100 | > 100 | > 100 | > 100 | > 100 |  |  |  |  |  |  |  |  |  |  |  | 
2 | COc1cc2c3c(c4cc(OC)c(OC)cc4c2cc1OC)C(=O)C1CCC(=O)N1C3 (stereo unspecified) |  |  |  |  |  |  |  |  | 59.3 | > 100 | 82.2 | > 100 | > 100 | > 100 | > 100 | > 100 | > 100 | > 100 |  | 
3 | Cc1cccc(C(C)C)c1NC(=O)CC1Sc2ccccc2NC1=O (stereo unspecified) |  | > 100 | > 100 | > 100 | > 100 | > 100 | > 100 | > 100 | > 100 |  | > 100 | > 100 |  |  |  |  |  | > 100 | > 100 | > 100
